Data published in PubChem BioAssay (NCI).
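Cultured in 96-well plates, cells were exposed to test compound for 48 hours across five concentrations. GI50: concentration for 50% inhibition of growth. Definition used: TGI = concentration required for complete inhibition of growth.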

Tests used:
Experiment in all cases: inhibition of tumour cell growth, NCI panel, 48 h
UO-31 renal = system: UO-31 renal
SW-620 colon = system: SW-620 colon
SK-OV-3 ovarian = system: SK-OV-3 ovarian
HCT-15 colon = system: HCT-15 colon
SN12C renal = system: SN12C renal
TK-10 renal = system: TK-10 renal
HCT-116 colon = system: HCT-116 colon
UACC-62 melanoma = system: UACC-62 melanoma
SNB-19 CNS = system: SNB-19 CNS
IGROV1 ovarian = system: IGROV1 ovarian

Row | SMILES | TGI (UO-31 renal) [µM] | TGI (SW-620 colon) [µM] | TGI (SK-OV-3 ovarian) [µM] | TGI (HCT-15 colon) [µM] | TGI (SN12C renal) [µM] | TGI (TK-10 renal) [µM] | TGI (HCT-116 colon) [µM] | TGI (UACC-62 melanoma) [µM] | TGI (SNB-19 CNS) [µM] | TGI (IGROV1 ovarian) [µM] | GI50 (UO-31 renal) [µM] | GI50 (SW-620 colon) [µM] | GI50 (SK-OV-3 ovarian) [µM] | GI50 (HCT-15 colon) [µM] | GI50 (SN12C renal) [µM] | GI50 (HCT-116 colon) [µM] | GI50 (UACC-62 melanoma) [µM] | GI50 (SNB-19 CNS) [µM] | GI50 (IGROV1 ovarian) [µM] | GI50 (TK-10 renal) [µM]
1 | O=C1C2C(C(=O)N1c1ccccc1)C1([N+](=O)[O-])C=C3c4ccccc4N(C(=O)c4ccccc4)C32C2C(=O)N(c3ccccc3)C(=O)C21 (stereo not drawn) | > 100 | > 100 | > 100 | > 100 | > 100 | > 100 | > 100 | > 100 | > 100 | > 100 | – | – | – | – | – | – | – | – | – | –
2 | CCCCCCCCCCCCCCCCCCOCC(CCP(=O)(CP(=O)(O)O)Oc1ccccc1)OCCCCCCCCCCCCCCCCCC (stereo not drawn) | – | > 100 | > 100 | > 100 | > 100 | > 100 | > 100 | > 100 | > 100 | > 100 | – | – | – | – | – | – | – | – | – | –
3 | CSC(=S)OC1CC(n2cnc3c(NC(=O)c4ccccc4)ncnc32)OC1CO[Si](C)(C)C(C)(C)C (stereo not drawn) | 28 | > 56.2 | > 46.4 | > 56.2 | 52.2 | > 56.2 | > 100 | > 56.2 | > 56.2 | 44.2 | – | – | – | – | – | – | – | – | – | –
4 | CCc1cc(CCC(=O)Nc2ccccc2[N+](=O)[O-])[nH]c(=S)n1 | > 100 | > 100 | > 100 | > 100 | – | > 100 | > 100 | > 100 | > 100 | > 100 | – | – | – | – | – | – | – | – | – | –
5 | O=C(Nc1cccc(Cl)c1)c1cccc(NC2=C(Cl)C(=O)N(Cc3ccccc3)C2=O)c1 | > 100 | > 100 | > 100 | > 100 | 56.9 | – | 42.4 | > 100 | > 100 | 9.81 | 36.4 | 58.6 | > 100 | 30 | 2.62 | 10.1 | 21.1 | > 100 | 3.12 | –
6 | C=C(C(=C)N1N=NC2C3CCC(C3)C21)N1N=NC2C3CCC(C3)C21 (stereo not drawn) | > 100 | > 100 | – | – | > 100 | > 100 | > 100 | > 100 | > 100 | > 100 | – | – | – | – | – | – | – | – | – | –
7 | CC1(C)NCCC[C@]2(C)[C@H]3CC[C@@H]4[C@H]5[C@H](C(=O)/C=C/c6ccccn6)CC[C@]5(CO)CC[C@@]4(C)[C@]3(C)CC[C@@H]12 | 23.3 | 3.49 | 30 | 3.89 | 16.8 | 24.8 | 3.15 | 17.2 | 19.8 | – | 5.7 | 1.82 | 12.9 | 1.84 | 3.51 | 1.72 | 4 | 3.92 | – | 4.8
8 | CO/N=C(\COc1ccc2oc(-c3ccccc3)cc(=O)c2c1)c1ccc(OC)cc1 | 58.5 | > 100 | > 100 | > 100 | 44.7 | > 100 | 33.8 | 84.7 | – | 42.8 | 22.8 | 25.6 | 59.3 | 30.2 | 19.3 | 16.9 | 27 | – | 17.9 | 41.4
9 | Oc1c(Cl)cc(Cl)cc1C(c1cc(Cl)cc(Cl)c1O)C(Cl)(Cl)Cl | – | 12.2 | 13.3 | 13.8 | 13.7 | 16 | 3.67 | 10.6 | 15.8 | – | – | 2.98 | 3.01 | 0.825 | 1.78 | 1.32 | 0.73 | 3.23 | – | 4.26
10 | COc1cc(C2=N/C(=C/c3cccs3)C(=O)O2)cc(OC)c1OC | – | > 100 | > 100 | > 100 | > 100 | > 100 | > 100 | > 100 | > 100 | > 100 | – | – | – | – | – | – | – | – | – | –
11 | COc1cc(-c2csc(NC(=O)Nc3ccc(C(F)(F)F)cc3)n2)cc(OC)c1OC | 5.29 | 5.3 | 8.33 | 4.09 | 8.89 | – | 8.16 | 5.38 | 12.3 | 13.5 | 1.77 | 2.19 | 2.68 | 1.71 | 2.62 | 2.32 | 1.99 | 2.69 | 2.86 | –
12 | CC1=C(O)/C(=C/C(C)CCC/C(C)=C/C=C/C(C)CCCc2ccoc2)OC1=O (stereo not drawn) | > 100 | > 100 | – | – | > 100 | 78.6 | – | – | – | – | – | – | – | – | – | – | – | – | – | –
13 | COc1ccc(/C=C2\CCC(CCN(C)C)(C3=CCCC3)C2=O)cc1Br (stereo not drawn) | 17.6 | 20.3 | – | 15.5 | 22 | 20 | 17.1 | – | 22.1 | 14.7 | – | – | – | – | – | – | – | – | – | –
14 | CCOC(=O)C(CC/C=C\c1ccccc1)N1CCC[C@H]1C(=O)OC (stereo partly drawn) | > 100 | > 100 | > 100 | – | > 100 | > 100 | > 100 | > 100 | > 100 | > 100 | – | – | – | – | – | – | – | – | – | –
15 | O=C(O/N=C1/CCC/C1=C\c1ccccc1)c1ccc(Cl)c(Cl)c1 | > 100 | > 100 | > 100 | > 100 | > 100 | > 100 | > 100 | > 100 | – | > 100 | – | – | – | – | – | – | – | – | – | –
16 | CCOC(=O)c1cnc2c(ccc3ncccc32)c1NCCCN(CC)CC | > 100 | > 100 | > 100 | > 100 | – | > 100 | – | > 100 | > 100 | > 100 | – | – | – | – | – | – | – | – | – | –
17 | Cc1cc2c(C(N)=O)c(N)n(-c3c(C)ccc(O)c3C)c2nc1C | 14.9 | 56.4 | 89 | 65.4 | 34.5 | 23.9 | 15.2 | – | > 100 | 12 | 3.18 | 3.17 | 12.2 | 5.51 | 2.48 | 2.52 | – | 8.28 | 3.04 | 4.11
18 | O=C(CCn1[nH]c(=O)c(Cl)c(Cl)c1=O)NNC(=O)C[n+]1ccccc1 | > 100 | > 100 | > 100 | > 100 | > 100 | > 100 | – | > 100 | > 100 | > 100 | – | – | – | – | – | – | – | – | – | –
